Measured values as given in ChEMBL document CHEMBL3046280, “Synthesis of 1-amidoalkyl-2-naphthols and oxazine derivatives with study of their antibacterial and antiviral activities” (Med Chem Res, 2013).
Activity calls are given as the source filed them. The rule behind the calls is not given here.

Experiments:
[1] = test system: Bacillus subtilis; experiment: Antibacterial activity against Bacillus subtilis assessed as growth inhibition; format: functional
[2] = test system: Staphylococcus aureus; experiment: Antibacterial activity against Staphylococcus aureus assessed as growth inhibition; format: functional
[3] = test system: Proteus mirabilis; experiment: Antibacterial activity against Proteus mirabilis assessed as growth inhibition; format: functional
[4] = test system: Escherichia coli; experiment: Antibacterial activity against Escherichia coli assessed as growth inhibition; format: functional, organism-based
[5] = test system: Pseudomonas aeruginosa; experiment: Antibacterial activity against Pseudomonas aeruginosa assessed as growth inhibition; format: functional, organism-based
[6] = test system: Klebsiella pneumoniae; experiment: Antibacterial activity against Klebsiella pneumoniae assessed as growth inhibition; format: functional
[7] = Therapeutic index, ratio of LD50 for african green monkey Vero cells to EC50 for Avian influenza virus H5N1 infected in african green monkey Vero cells; format: cell-based; settings: read-out: Ratio LD50/EC50
[8] = test system: unidentified influenza virus; experiment: Antiviral activity against unidentified influenza virus (H5N1) infected African green monkey Vero cells assessed as protection against virus-induced cytopathic effect incubated for 3 days measured on day 4 post infection by MTT assay; format: functional, organism-based
[9] = test system: Vero; experiment: Cytotoxicity against Chlorocebus aethiops (African green monkey) Vero cells after 24 hr by MTT assay; format: cell-based; settings: chlorocebus sabaeus
[10] = test system: Bacillus subtilis; experiment: Antibacterial activity against Bacillus subtilis assessed as growth inhibition at 0.042 uM/ml; format: functional, organism-based
[11] = test system: Proteus mirabilis; experiment: Antibacterial activity against Proteus mirabilis assessed as growth inhibition at 0.042 uM/ml; format: functional, organism-based
[12] = test system: Klebsiella pneumoniae; experiment: Antibacterial activity against Klebsiella pneumoniae assessed as growth inhibition at 0.042 uM/ml; format: functional, organism-based

Molecule | growth inhibition (GI) [1] | growth inhibition (GI) [2] | growth inhibition (GI) [3] | growth inhibition (GI) [4] | growth inhibition (GI) [5] | diameter of the inhibition zone (DIZ) [6] [mm] | selectivity ratio [7] | EC50 [8] [uM/ml] | LD50 [9] [uM/ml] | diameter of the inhibition zone (DIZ) [1] [mm] | diameter of the inhibition zone (DIZ) [2] [mm] | diameter of the inhibition zone (DIZ) [3] [mm] | inhibition zone (IZ) [10] [mm] | inhibition zone (IZ) [11] [mm] | inhibition zone (IZ) [12] [mm] | growth inhibition (GI) [6]
CC(=O)NC(c1cn(-c2ccccc2)nc1-c1ccccc1)c1c(O)ccc2ccccc12 (stereo not given) | inactive | inactive | inactive | inactive | inactive | 18 | 7.19 | 0.021 | 0.151 | – | – | – | – | – | – | –
c1ccc2c3c(ccc2c1)OC(c1c[nH]c2ccccc12)NC3c1c[nH]c2ccccc12 (stereo not given) | – | inactive | inactive | inactive | inactive | 12 | 0.726 | 0.168 | 0.122 | 13 | – | – | – | – | – | –
O=C(NC(c1cn(-c2ccccc2)nc1-c1ccccc1)c1c(O)ccc2ccccc12)c1ccccc1 (stereo not given) | – | inactive | inactive | inactive | inactive | 14 | 5.44 | 0.018 | 0.098 | 20 | – | – | – | – | – | –
NC1=NC(c2c[nH]c3ccccc23)c2c(ccc3ccccc23)O1 (stereo not given) | – | inactive | inactive | inactive | inactive | 13 | 2.05 | 0.061 | 0.125 | 12 | – | – | – | – | – | –
c1ccc(C2=NC(c3c[nH]c4ccccc34)c3c(ccc4ccccc34)O2)cc1 (stereo not given) | – | – | inactive | inactive | inactive | 11 | 2.12 | 0.049 | 0.104 | 14 | 11 | – | – | – | – | –
NC(=O)NC(c1c(O)ccc2ccccc12)c1c[nH]c2ccccc12 (stereo not given) | inactive | inactive | inactive | inactive | inactive | 11 | 7 | 0.031 | 0.217 | – | – | – | – | – | – | –
CC(=O)N[C@H]1[C@H]([C@H](O)[C@H](O)CO)OC(C(=O)O)=C[C@@H]1NC(=N)N [ZANAMIVIR] | – | – | – | – | – | – | 15.5 | 0.015 | 0.232 | – | – | – | – | – | – | –
NC(=O)NC(c1cn(-c2ccccc2)nc1-c1ccccc1)c1c(O)ccc2ccccc12 (stereo not given) | inactive | – | – | inactive | inactive | 11 | 6.84 | 0.025 | 0.171 | – | 24 | 0 | – | – | – | –
GENTAMICIN | – | – | – | – | – | – | – | – | – | – | – | – | 21 | 25 | 19 | –
c1ccc(-c2nn(-c3ccccc3)cc2C2NC(c3cn(-c4ccccc4)nc3-c3ccccc3)c3c(ccc4ccccc34)O2)cc1 (stereo not given) | – | – | inactive | inactive | inactive | 11 | 1.98 | 0.045 | 0.089 | 11 | 11 | – | – | – | – | –
O=C(NC(c1c(O)ccc2ccccc12)c1c[nH]c2ccccc12)c1ccccc1 (stereo not given) | – | – | inactive | inactive | inactive | – | 16.2 | 0.019 | 0.307 | 11 | 11 | – | – | – | – | inactive
CC(=O)NC(c1c(O)ccc2ccccc12)c1c[nH]c2ccccc12 (stereo not given) | – | – | inactive | inactive | inactive | – | 8.95 | 0.022 | 0.197 | 17 | 20 | – | – | – | – | inactive
NC1=NC(c2cn(-c3ccccc3)nc2-c2ccccc2)c2c(ccc3ccccc23)O1 (stereo not given) | – | inactive | inactive | inactive | inactive | 11 | 5.61 | 0.0148 | 0.083 | 12 | – | – | – | – | – | –
